In paper PMC12223841, “Compounds Isolated from Paepalanthus spp. (Eriocaulaceae) and Their Evaluation in Antimicrobial, Cytotoxic, and Antiviral Assays” (ACS Omega, 2025):
≈ marks a conversion by molar mass, not a printed value.

Assays:
[1] = system: Staphylococcus aureus (NEWP0023); assay: Broth microdilution with TTC, S. aureus; assay type: cell-based; settings: 24 h, 36 °C
[2] = system: MCF-7 (human breast cancer); assay: MTT growth-inhibition assay, MCF-7; assay type: cell-based; settings: 72 h; for inhibition at 50 µM: MCF7, 50 μM, read-out: Inhibition percentage (growth), MCF-7
[3] = system: HCT-116 (human colon cancer); assay: MTT growth-inhibition assay, HCT-116; assay type: cell-based; settings: 72 h; for inhibition at 50 µM: read-out: Inhibition percentage (growth), HCT 116
[4] = system: Escherichia coli (NEWP0022); assay: Broth microdilution with TTC, E. coli; assay type: cell-based; settings: 24 h, 36 °C
in vitro = settings: hamster

SMILES	MIC [1] [µg/mL]	MIC [4] [µg/mL]	IC50 ([2]; MCF7, positive control, 95% confidence interval in brackets) [nM]	IC50 ([3]; positive control, 95% confidence interval in brackets) [nM]	inhibition at 50 µM [2] [%]	inhibition at 50 µM [3] [%]	viability at 10 µM (in vitro) [%]
COc1c(O)cc2oc(-c3ccc(O)cc3)c(O)c(=O)c2c1O [Compound 1, 6-Methoxykaempferol]	250 (≈ 790 µM)	≥ 250	–	–	19.2	29.2	–
COc1c(O)cc2oc(-c3ccc(O)cc3)c(OC3OC(COC(=O)C=Cc4ccc(O)cc4)C(O)C(O)C3O)c(=O)c2c1O [Compound 4, 6-Methoxykaempferol-3-O-β-D-6″-(p-coumaroyl)-glycopyranoside]	≥ 500	≥ 250	–	–	3.45	11.5	100

Further lines, with some results ahead:

MIC [1] [µg/mL]	MIC [4] [µg/mL]	IC50 ([2]; MCF7, positive control, 95% confidence interval in brackets) [nM]	IC50 ([3]; positive control, 95% confidence interval in brackets) [nM]	SMILES	inhibition at 50 µM [2] [%]	inhibition at 50 µM [3] [%]	viability at 10 µM (in vitro) [%]
≥ 500	≥ 250	–	–	COc1c(O)cc2oc(-c3ccc(O)cc3)c(O[C@@H]3O[C@H](CO)[C@@H](O)[C@H](O)[C@H]3O)c(=O)c2c1O [Compound 5, 6-Methoxykaempferol-3-O-β-glucopyranoside]	–	–	–
–	–	1160	180	COc1cccc2c1C(=O)c1c(O)c3c(c(O)c1C2=O)C[C@@](O)(C(=O)CO)C[C@@H]3O[C@H]1C[C@H](N)[C@H](O)[C@H](C)O1 [Doxorubicin, doxorubicin, reference compound]	–	–	–
≤ 0.5	≤ 0.5	–	–	CNC(C)C1CCC(N)C(OC2C(N)CC(N)C(OC3OCC(C)(O)C(NC)C3O)C2O)O1 (stereo not drawn) [gentamicin, reference compound]	–	–	–
